From patent US11814367B2, “Inhibitors of glycogen synthase 1 (GYS1) and methods of use thereof” (Maze Therapeutics, Inc., priority 2021, dated 2023) come the findings set out here.

The target of test [1] is hGYS2 enzyme (recombinant hGYS2/GN1 protein) (Homo sapiens (Human), UniProt P54840). Briefly: GYS2 coupled enzyme assay (PK/LDH). Type of test: biochemical. To be noted: geometric mean of at least 2 assay runs on separate days, read-out: Avg_IC50. In a few lines: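 Recombinant hGYS2/GN1 (200 nM) with 2 mM UDP-glucose, 0.2% rabbit liver glycogen, 2 mM glucose-6-phosphate; UDP coupled via PK/LDH (2 mM PEP, 0.6 mM NADH). Buffer 50 mM Tris pH 7.5, 2 mM MgCl2, 100 mM KCl, 2.5% DMSO. A340 slope over 10 min; IC50 from Hill fit of duplicates.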
hGYS2 enzyme (recombinant hGYS2/GN1 protein), sequence (P54840 whole entry): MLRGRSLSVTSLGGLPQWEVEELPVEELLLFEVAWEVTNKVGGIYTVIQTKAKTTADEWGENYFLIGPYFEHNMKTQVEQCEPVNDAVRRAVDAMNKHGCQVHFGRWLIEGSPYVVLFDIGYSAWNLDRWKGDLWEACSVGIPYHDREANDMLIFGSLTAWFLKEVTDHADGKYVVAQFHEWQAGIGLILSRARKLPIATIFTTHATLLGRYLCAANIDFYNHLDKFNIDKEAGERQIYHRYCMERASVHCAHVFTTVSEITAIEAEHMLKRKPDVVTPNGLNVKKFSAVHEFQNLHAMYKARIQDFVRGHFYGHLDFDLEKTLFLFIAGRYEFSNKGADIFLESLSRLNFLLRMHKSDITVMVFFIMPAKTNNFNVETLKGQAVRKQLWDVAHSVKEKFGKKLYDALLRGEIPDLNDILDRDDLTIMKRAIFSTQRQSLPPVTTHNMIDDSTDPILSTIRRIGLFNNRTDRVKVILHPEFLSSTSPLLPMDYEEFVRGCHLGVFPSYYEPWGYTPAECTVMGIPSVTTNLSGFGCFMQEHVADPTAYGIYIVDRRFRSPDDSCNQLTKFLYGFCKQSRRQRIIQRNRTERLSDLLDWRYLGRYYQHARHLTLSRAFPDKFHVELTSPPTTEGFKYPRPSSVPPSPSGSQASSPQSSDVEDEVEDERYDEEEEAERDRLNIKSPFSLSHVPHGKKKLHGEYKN
hGYS2 enzyme (recombinant hGYS2/GN1 protein), sequence (P46976 whole entry partner): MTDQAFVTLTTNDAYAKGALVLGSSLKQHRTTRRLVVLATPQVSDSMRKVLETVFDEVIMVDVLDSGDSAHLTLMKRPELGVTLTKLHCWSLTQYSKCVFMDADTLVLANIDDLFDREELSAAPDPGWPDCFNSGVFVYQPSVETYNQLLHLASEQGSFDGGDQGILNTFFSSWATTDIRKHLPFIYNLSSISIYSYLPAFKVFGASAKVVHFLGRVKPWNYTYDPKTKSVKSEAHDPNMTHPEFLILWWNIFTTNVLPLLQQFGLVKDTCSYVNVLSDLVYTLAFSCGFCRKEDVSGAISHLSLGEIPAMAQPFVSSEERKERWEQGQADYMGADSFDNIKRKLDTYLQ

Test [2] deals with hGYS1 enzyme (recombinant hGYS1/GN1 protein) (Homo sapiens (Human), UniProt P13807). In words: GYS1 coupled enzyme assay (PK/LDH). The settings on record: hGYS1/GN1 50 nM, UDP-Glucose 0.8 mM, G6P 1 mM; geometric mean of at least 2 runs. Type of test: biochemical.
hGYS1 enzyme (recombinant hGYS1/GN1 protein), sequence (P13807 whole entry): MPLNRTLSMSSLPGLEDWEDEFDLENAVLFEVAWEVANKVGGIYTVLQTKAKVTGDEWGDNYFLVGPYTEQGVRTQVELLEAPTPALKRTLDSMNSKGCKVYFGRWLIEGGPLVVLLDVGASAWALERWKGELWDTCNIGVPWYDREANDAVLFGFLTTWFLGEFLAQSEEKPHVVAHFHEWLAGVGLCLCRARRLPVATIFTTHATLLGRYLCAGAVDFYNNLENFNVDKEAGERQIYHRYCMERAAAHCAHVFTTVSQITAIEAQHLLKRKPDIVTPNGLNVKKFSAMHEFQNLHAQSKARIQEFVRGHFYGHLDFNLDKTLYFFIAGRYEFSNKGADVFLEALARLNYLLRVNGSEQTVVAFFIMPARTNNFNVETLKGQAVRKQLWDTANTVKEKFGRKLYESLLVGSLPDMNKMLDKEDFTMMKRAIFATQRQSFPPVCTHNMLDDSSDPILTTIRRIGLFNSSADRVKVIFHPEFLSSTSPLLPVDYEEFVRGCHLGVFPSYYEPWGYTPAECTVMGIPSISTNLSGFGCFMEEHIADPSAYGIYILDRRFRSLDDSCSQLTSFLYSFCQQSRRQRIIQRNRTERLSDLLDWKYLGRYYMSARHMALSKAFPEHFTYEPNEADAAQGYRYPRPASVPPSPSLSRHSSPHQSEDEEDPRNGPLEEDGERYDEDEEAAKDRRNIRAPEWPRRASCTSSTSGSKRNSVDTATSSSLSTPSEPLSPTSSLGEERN
hGYS1 enzyme (recombinant hGYS1/GN1 protein), sequence (P46976 whole entry partner): as the sequence (P46976 whole entry partner) above

A value given as a limit tells only on which side of the number the result lay.

Take `CC(C)c1ccc([C@@H](NC(=O)[C@@H]2C[C@@H](F)CN2C(=O)CCc2c[nH]c3ccccc23)c2ccccc2)cc1` [Compound 109, (2S,4R)-4-fluoro-1-[3-(1H-indol-3-yl)propanoyl]-N-[(S)-phenyl[4-(propan-2-yl)phenyl]methyl]pyrrolidine-2-carboxamide]: the IC50 in test [1] is more than 100000 nM; in test [2] it was 41 nM.

Regarding `Cc1ccc(CCC(=O)N2C[C@H](F)C[C@H]2C(=O)N[C@@H](c2ccccc2)c2ccc(C(C)C)cc2)c(C)n1` [Compound 110, (2S,4R)-1-[3-(2,6-dimethylpyridin-3-yl)propanoyl]-4-fluoro-N-[(S)-phenyl[4-(propan-2-yl)phenyl]methyl]pyrrolidine-2-carboxamide], the figures for the IC50 in test [1] and in test [2] were more than 100000 nM and 33 nM, respectively.

For `CC(C)c1ccc([C@@H](NC(=O)[C@@H]2C[C@@H](F)CN2C(=O)CCc2ccc(=O)[nH]n2)c2ccccc2)cc1` [Compound 114, (2S,4R)-4-fluoro-1-[3-(6-oxo-1,6-dihydropyridazin-3-yl)propanoyl]-N-[(S)-phenyl[4-(propan-2-yl)phenyl]methyl]pyrrolidine-2-carboxamide], the IC50 in test [1] was more than 100000 nM; in test [2] it was 208 nM.

`CC(C)c1ccc([C@@H](NC(=O)[C@@H]2C[C@@H](F)CN2C(=O)CN2C(=O)CNC2=O)c2ccccc2)cc1` [Compound 117, (2S,4R)-1-[2-(2,5-dioxoimidazolidin-1-yl)acetyl]-4-fluoro-N-[(S)-phenyl[4-(propan-2-yl)phenyl]methyl]pyrrolidine-2-carboxamide]: the results for the IC50 in test [1] and in test [2] were more than 100000 nM and 49 nM, respectively.

Regarding `CC(C)c1ccc([C@@H](NC(=O)[C@@H]2C[C@@H](F)CN2C(=O)Cc2ccc3ncnn3c2)c2ccccc2)cc1` [Compound 118, (2S,4R)-4-fluoro-N-[(S)-phenyl[4-(propan-2-yl)phenyl]methyl]-1-(2-{[1,2,4]triazolo[1,5-a]pyridin-6-yl}acetyl)pyrrolidine-2-carboxamide], the IC50 was more than 100000 nM in test [1] and 20 nM in test [2].

On to `CC(C)c1ccc([C@@H](NC(=O)[C@@H]2C[C@@H](F)CN2C(=O)Cc2noc3ccccc23)c2ccccc2)cc1` [Compound 119, (2S,4R)-1-[2-(1,2-benzoxazol-3-yl)acetyl]-4-fluoro-N-[(S)-phenyl[4-(propan-2-yl)phenyl]methyl]pyrrolidine-2-carboxamide], for which the IC50 was more than 100000 nM in test [1] and 109 nM in test [2].

For the molecule `CC(C)c1ccc([C@@H](NC(=O)[C@@H]2C[C@@H](F)CN2C(=O)Cc2cnc3ccccn23)c2ccccc2)cc1` [Compound 121], the IC50 was more than 100000 nM in test [1] and 15 nM in test [2].

As to `Cc1cc(C)n(CC(=O)N2C[C@H](F)C[C@H]2C(=O)N[C@@H](c2ccccc2)c2ccc(C(C)C)cc2)n1` [Compound 125, (2S,4R)-1-[2-(3,5-dimethyl-1H-pyrazol-1-yl)acetyl]-4-fluoro-N-[(S)-phenyl[4-(propan-2-yl)phenyl]methyl]pyrrolidine-2-carboxamide], the IC50 in test [1] is more than 100000 nM; in test [2] it was 23 nM.

For the molecule `CC(C)c1ccc([C@@H](NC(=O)[C@@H]2C[C@@H](F)CN2C(=O)Cn2ccc3c(F)cccc32)c2ccccc2)cc1` [Compound 128, (2S,4R)-4-fluoro-1-[2-(4-fluoro-1H-indol-1-yl)acetyl]-N-[(S)-phenyl[4-(propan-2-yl)phenyl]methyl]pyrrolidine-2-carboxamide], the IC50 in test [1] was more than 100000 nM; in test [2] it was 56 nM.

As to `CC(C)c1ccc([C@@H](NC(=O)[C@@H]2C[C@@H](F)CN2C(=O)CS(=O)(=O)N2CCCC2)c2ccccc2)cc1` [Compound 129, (2S,4R)-4-fluoro-N-[(S)-phenyl[4-(propan-2-yl)phenyl]methyl]-1-[2-(pyrrolidine-1-sulfonyl)acety]pyrrolidine-2-carboxamide], the results for the IC50 in test [1] and in test [2] were more than 100000 nM and 217 nM, respectively.

For `CC(C)c1ccc([C@@H](NC(=O)[C@@H]2C[C@@H](F)CN2C(=O)Cc2cccc3ncccc23)c2ccccc2)cc1` [Compound 130, (2S,4R)-4-fluoro-N-[(S)-phenyl[4-(propan-2-yl)phenyl]methyl]-1-[2-(quinolin-5-yl)acetyl]pyrrolidine-2-carboxamide], the figures for the IC50 in test [1] and in test [2] were more than 100000 nM and 7 nM, respectively.

Turning to `COc1ccc(CC(=O)N2C[C@H](F)C[C@H]2C(=O)N[C@@H](c2ccccc2)c2ccc(C(C)C)cc2)c(C#N)c1` [Compound 133, (2S,4R)-1-[2-(2-cyano-4-methoxyphenyl)acetyl]-4-fluoro-N-[(S)-phenyl[4-(propan-2-yl)phenyl]methyl]pyrrolidine-2-carboxamide], the IC50 in test [1] was more than 100000 nM; in test [2], 10 nM.

With `CC(C)c1ccc([C@@H](NC(=O)[C@@H]2C[C@@H](F)CN2C(=O)CCc2cnc3[nH]ccc3c2)c2ccccc2)cc1` [Compound 134, (2S,4R)-4-fluoro-N-[(S)-phenyl[4-(propan-2-yl)phenyl]methyl]-1-(3-{1H-pyrrolo[2,3-b]pyridin-5-yl}propanoyl)pyrrolidine-2-carboxamide], the IC50 in test [1] was more than 100000 nM; in test [2], 41 nM.

Consider `COc1cccnc1CCC(=O)N1C[C@H](F)C[C@H]1C(=O)N[C@@H](c1ccccc1)c1ccc(C(C)C)cc1` [Compound 135, (2S,4R)-4-fluoro-1-[3-(3-methoxypyridin-2-yl)propanoyl]-N-[(S)-phenyl[4-(propan-2-yl)phenyl]methyl]pyrrolidine-2-carboxamide], for which the results for the IC50 in test [1] and in test [2] were more than 100000 nM and 44 nM, respectively.

For the molecule `CC(C)c1ccc([C@@H](NC(=O)[C@@H]2C[C@@H](F)CN2C(=O)Cc2cc3ccccc3n2C)c2ccccc2)cc1` [Compound 137, (2S,4R)-4-fluoro-1-[2-(1-methyl-1H-indol-2-yl)acetyl]-N-[(S)-phenyl[4-(propan-2-yl)phenyl]methyl]pyrrolidine-2-carboxamide], the IC50 in test [1] is more than 100000 nM; in test [2], 17 nM.

In the case of `CC(=O)N1CC[C@@H](C(=O)N2C[C@H](F)C[C@H]2C(=O)N[C@@H](c2ccccc2)c2ccc(C(C)C)cc2)[C@@H]1c1cccnc1` [Compound 140, (2S,4R)-1-[(2R,3R)-1-acetyl-2-(pyridin-3-yl)pyrrolidine-3-carbonyl]-4-fluoro-N-[(S)-phenyl[4-(propan-2-yl)phenyl]methyl]pyrrolidine-2-carboxamide], the IC50 is more than 100000 nM in test [1] and 67 nM in test [2].

Regarding `CC(=O)N1CCOC(C(=O)N2C[C@H](F)C[C@H]2C(=O)N[C@@H](c2ccccc2)c2ccc(C(C)C)cc2)C1` (stereo partly drawn) [Compound 141, (2S,4R)-1-(4-acetylmorpholine-2-carbonyl)-4-fluoro-N-[(S)-phenyl[4-(propan-2-yl)phenyl]methyl]pyrrolidine-2-carboxamide], the figures for the IC50 in test [1] and in test [2] were more than 100000 nM and 181 nM, respectively.

In the case of `CC(=O)N(C)CC(=O)N1C[C@H](F)C[C@H]1C(=O)N[C@@H](c1ccccc1)c1ccc(C(C)C)cc1` [Compound 142, (2S,4R)-4-fluoro-1-[2-(N-methylacetamido)acetyl]-N-[(S)-phenyl[4-(propan-2-yl)phenyl]methyl]pyrrolidine-2-carboxamide], the IC50 in test [1] is more than 100000 nM; in test [2], 77 nM.

As for `CC(=O)N1CCC(C(=O)N2C[C@H](F)C[C@H]2C(=O)N[C@@H](c2ccccc2)c2ccc(C(C)C)cc2)CC1` [Compound 144, (2S,4R)-1-(1-acetylpiperidine-4-carbonyl)-4-fluoro-N-[(S)-phenyl[4-(propan-2-yl)phenyl]methyl]pyrrolidine-2-carboxamide], the IC50 in test [1] was more than 100000 nM; in test [2], 168 nM.

For the molecule `CC(=O)N1CC(C)(C(=O)N2C[C@H](F)C[C@H]2C(=O)N[C@@H](c2ccccc2)c2ccc(C(C)C)cc2)C1` [Compound 146, (2S,4R)-1-(1-acetyl-3-methylazetidine-3-carbonyl)-4-fluoro-N-[(S)-phenyl[4-(propan-2-yl)phenyl]methyl]pyrrolidine-2-carboxamide], the IC50 is more than 100000 nM in test [1] and 206 nM in test [2].

Consider `CC(=O)N1CCC(C(=O)N2C[C@H](F)C[C@H]2C(=O)N[C@@H](c2ccccc2)c2ccc(C(C)C)cc2)C1` (stereo partly drawn) [Compound 147, (2S,4R)-1-(1-acetylpyrrolidine-3-carbonyl)-4-fluoro-N-[(S)-phenyl[4-(propan-2-yl)phenyl]methyl]pyrrolidine-2-carboxamide], for which the IC50 was more than 100000 nM in test [1] and 127 nM in test [2].

As for `CC(=O)N1CC2(CC(C(=O)N3C[C@H](F)C[C@H]3C(=O)N[C@@H](c3ccccc3)c3ccc(C(C)C)cc3)=NO2)C1` [Compound 151, (2S,4R)-1-{2-acetyl-5-oxa-2,6-diazaspiro[3.4]oct-6-ene-7-carbonyl}-4-fluoro-N-[(S)-phenyl[4-(propan-2-yl)phenyl]methyl]pyrrolidine-2-carboxamide], the IC50 in test [1] was more than 100000 nM; in test [2], 241 nM.

In the case of `CC(=O)N1CC(C)(CC(=O)N2C[C@H](F)C[C@H]2C(=O)N[C@@H](c2ccccc2)c2ccc(C(C)C)cc2)C1` [Compound 154, (2S,4R)-1-[2-(1-acetyl-3-methylazetidin-3-yl)acetyl]-4-fluoro-N-[(S)-phenyl[4-(propan-2-yl)phenyl]methyl]pyrrolidine-2-carboxamide], the IC50 in test [1] was more than 100000 nM; in test [2] it was 285 nM.

Consider `CC(=O)N1CCC[C@@H]1CC(=O)N1C[C@H](F)C[C@H]1C(=O)N[C@@H](c1ccccc1)c1ccc(C(C)C)cc1` [Compound 155, (2S,4R)-1-{2-[(2R)-1-acetylpyrrolidin-2-yl]acetyl}-4-fluoro-N-[(S)-phenyl[4-(propan-2-yl)phenyl]methyl]pyrrolidine-2-carboxamide], for which the figures for the IC50 in test [1] and in test [2] were more than 100000 nM and 206 nM, respectively.
